In ChEMBL document CHEMBL3991601, “The target landscape of clinical kinase drugs” (Science, 2017) one finds Kd data, which are given here for eleven compounds.

The term Kd denotes the constant that tells how readily two partners part at equilibrium.

Active and inactive are the calls of the source.

In assay [1] the target is T1, Structural maintenance of chromosomes protein 1A (Homo sapiens, UniProt Q14683).
T1 sequence (Q14683 whole entry): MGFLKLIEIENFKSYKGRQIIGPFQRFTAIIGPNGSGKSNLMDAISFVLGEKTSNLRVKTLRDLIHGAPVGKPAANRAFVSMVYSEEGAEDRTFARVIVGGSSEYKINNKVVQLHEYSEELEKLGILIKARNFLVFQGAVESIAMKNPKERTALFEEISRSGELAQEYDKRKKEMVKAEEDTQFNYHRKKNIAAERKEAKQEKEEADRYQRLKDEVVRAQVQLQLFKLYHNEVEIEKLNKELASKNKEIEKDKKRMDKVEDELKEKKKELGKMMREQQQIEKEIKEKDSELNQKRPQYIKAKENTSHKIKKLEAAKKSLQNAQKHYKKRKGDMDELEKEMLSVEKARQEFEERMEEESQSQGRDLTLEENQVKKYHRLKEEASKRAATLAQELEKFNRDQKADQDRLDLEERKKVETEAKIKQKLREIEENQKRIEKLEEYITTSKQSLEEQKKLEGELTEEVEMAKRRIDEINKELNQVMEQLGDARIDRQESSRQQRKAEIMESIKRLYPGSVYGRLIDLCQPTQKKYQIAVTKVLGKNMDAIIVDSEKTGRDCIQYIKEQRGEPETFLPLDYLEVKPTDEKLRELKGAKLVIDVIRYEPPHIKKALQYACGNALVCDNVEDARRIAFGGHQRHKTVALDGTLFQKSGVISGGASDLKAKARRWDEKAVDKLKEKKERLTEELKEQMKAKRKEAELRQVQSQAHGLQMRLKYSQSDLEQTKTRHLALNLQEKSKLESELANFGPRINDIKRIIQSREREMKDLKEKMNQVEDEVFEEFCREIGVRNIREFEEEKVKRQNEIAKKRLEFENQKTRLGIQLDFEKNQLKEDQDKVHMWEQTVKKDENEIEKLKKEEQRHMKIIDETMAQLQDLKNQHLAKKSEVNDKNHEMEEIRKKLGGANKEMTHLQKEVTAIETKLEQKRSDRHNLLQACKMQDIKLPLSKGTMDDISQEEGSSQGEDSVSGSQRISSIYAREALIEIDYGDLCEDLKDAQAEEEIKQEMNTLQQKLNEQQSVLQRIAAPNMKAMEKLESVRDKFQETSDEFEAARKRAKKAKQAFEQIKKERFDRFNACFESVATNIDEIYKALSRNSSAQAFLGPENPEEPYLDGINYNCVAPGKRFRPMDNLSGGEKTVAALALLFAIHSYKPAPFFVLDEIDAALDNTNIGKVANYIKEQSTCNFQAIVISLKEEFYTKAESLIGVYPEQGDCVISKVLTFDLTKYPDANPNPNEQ

Assay [2] addresses Obg-like ATPase 1 (Homo sapiens, UniProt Q9NTK5).
Assay [3] concerns the target T2, Non-receptor tyrosine-protein kinase TNK1 (Homo sapiens, UniProt Q13470).
T2 sequence (Q13470 whole entry): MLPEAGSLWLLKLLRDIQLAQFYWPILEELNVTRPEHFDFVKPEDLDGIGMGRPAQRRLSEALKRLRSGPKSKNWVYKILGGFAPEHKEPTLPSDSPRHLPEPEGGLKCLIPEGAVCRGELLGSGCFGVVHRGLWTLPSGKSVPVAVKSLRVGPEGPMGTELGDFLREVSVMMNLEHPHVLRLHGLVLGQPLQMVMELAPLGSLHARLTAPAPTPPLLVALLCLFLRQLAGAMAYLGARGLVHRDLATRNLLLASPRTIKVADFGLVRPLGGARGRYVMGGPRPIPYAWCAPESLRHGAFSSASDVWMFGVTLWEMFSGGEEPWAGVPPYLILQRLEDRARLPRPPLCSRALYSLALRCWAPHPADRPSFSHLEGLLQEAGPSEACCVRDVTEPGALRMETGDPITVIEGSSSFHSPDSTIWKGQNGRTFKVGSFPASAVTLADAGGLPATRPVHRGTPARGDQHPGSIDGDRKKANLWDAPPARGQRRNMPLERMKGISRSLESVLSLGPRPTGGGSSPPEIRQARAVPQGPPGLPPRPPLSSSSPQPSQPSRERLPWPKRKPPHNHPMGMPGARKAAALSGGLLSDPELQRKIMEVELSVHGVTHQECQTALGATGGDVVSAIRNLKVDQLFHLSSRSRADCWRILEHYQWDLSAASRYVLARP

The target in assay [4] is T3, ATP-dependent RNA helicase DDX1 (Homo sapiens, UniProt Q92499).
T3 sequence (Q92499 whole entry): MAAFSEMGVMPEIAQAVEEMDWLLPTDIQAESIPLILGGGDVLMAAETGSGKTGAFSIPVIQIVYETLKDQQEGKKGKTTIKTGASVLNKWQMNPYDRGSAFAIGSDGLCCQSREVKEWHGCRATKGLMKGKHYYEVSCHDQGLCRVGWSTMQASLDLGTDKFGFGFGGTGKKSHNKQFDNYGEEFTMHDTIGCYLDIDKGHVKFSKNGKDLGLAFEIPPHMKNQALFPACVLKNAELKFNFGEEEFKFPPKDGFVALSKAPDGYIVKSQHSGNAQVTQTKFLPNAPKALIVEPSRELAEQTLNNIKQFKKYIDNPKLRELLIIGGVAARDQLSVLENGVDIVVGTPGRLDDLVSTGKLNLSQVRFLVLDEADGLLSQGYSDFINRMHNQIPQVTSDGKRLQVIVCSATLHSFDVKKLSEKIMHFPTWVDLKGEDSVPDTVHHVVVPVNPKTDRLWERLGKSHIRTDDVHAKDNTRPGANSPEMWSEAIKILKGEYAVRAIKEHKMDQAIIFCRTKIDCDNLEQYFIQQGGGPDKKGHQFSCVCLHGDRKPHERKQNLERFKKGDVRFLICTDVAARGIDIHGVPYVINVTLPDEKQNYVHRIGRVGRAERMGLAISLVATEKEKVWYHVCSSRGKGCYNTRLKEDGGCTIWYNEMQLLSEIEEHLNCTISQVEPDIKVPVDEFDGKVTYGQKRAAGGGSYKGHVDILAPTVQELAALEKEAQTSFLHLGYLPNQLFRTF

For assay [5], the target named is LIM domain kinase 1 (Homo sapiens, UniProt P53667).
In assay [6] the target is Serine/threonine-protein kinase/endoribonuclease IRE2 (Homo sapiens, UniProt Q76MJ5).
The target of assay [7] is Atypical kinase COQ8A, mitochondrial (Homo sapiens, UniProt Q8NI60).
In assay [8] the target is Serine/threonine-protein kinase PAK 2 (Homo sapiens, UniProt Q13177).
Note: in the data inactive means no Kd found up to 30 µM.

Sequence of Serine/threonine-protein kinase PAK 2 (Q13177 whole entry): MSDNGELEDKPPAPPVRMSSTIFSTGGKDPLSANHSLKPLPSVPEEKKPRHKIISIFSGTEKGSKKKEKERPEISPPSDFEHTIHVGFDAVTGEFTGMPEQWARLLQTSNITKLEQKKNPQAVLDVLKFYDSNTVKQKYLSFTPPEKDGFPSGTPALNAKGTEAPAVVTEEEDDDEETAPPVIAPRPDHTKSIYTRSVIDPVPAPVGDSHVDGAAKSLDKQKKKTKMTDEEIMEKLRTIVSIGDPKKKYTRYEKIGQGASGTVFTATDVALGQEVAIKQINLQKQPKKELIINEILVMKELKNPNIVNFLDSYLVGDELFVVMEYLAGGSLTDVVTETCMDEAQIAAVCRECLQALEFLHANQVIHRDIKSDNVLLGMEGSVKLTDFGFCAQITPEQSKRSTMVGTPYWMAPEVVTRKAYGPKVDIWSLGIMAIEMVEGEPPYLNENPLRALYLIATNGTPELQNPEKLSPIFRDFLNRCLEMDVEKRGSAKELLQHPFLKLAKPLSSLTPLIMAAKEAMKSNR
Sequence of Serine/threonine-protein kinase/endoribonuclease IRE2 (Q76MJ5 whole entry): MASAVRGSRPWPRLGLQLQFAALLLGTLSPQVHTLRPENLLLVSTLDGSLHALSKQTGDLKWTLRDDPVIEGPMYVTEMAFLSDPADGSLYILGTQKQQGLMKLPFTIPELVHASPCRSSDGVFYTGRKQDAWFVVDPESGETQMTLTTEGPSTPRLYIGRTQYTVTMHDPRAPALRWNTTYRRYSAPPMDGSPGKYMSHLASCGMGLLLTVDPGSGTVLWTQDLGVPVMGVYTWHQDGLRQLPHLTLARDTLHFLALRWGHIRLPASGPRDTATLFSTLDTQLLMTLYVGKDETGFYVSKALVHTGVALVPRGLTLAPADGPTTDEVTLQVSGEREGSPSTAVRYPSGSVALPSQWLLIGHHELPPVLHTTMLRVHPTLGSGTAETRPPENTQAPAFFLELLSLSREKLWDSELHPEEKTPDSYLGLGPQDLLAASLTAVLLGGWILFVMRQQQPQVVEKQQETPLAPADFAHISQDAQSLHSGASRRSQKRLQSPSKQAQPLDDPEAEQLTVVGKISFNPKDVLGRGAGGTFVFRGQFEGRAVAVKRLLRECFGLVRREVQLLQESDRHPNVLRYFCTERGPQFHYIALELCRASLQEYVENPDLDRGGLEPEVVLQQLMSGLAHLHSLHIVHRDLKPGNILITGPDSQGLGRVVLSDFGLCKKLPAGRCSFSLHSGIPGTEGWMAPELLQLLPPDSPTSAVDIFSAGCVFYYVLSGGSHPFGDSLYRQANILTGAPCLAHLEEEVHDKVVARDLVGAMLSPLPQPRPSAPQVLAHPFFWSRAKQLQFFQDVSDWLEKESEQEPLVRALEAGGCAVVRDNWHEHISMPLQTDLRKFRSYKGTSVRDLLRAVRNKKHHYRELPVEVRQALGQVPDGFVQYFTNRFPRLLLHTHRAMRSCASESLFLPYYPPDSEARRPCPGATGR
Sequence of Atypical kinase COQ8A, mitochondrial (Q8NI60 whole entry): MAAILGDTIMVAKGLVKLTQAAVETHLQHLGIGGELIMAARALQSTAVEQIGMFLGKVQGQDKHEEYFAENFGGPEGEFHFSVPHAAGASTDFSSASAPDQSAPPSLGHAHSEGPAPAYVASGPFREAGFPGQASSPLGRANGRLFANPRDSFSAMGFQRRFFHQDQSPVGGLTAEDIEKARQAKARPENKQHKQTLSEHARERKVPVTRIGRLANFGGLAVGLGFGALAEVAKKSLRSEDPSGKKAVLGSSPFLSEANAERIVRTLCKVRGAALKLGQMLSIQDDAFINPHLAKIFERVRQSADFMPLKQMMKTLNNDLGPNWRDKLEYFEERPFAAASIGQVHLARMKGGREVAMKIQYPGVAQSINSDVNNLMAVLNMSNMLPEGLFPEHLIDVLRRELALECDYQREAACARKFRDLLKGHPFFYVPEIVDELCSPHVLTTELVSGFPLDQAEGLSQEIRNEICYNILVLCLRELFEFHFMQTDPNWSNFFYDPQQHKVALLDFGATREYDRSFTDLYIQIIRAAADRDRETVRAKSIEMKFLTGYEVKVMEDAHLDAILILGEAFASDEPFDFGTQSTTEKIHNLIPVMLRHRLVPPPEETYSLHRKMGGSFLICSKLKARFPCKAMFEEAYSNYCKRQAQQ
Sequence of LIM domain kinase 1 (P53667 whole entry, the tested form may be a part): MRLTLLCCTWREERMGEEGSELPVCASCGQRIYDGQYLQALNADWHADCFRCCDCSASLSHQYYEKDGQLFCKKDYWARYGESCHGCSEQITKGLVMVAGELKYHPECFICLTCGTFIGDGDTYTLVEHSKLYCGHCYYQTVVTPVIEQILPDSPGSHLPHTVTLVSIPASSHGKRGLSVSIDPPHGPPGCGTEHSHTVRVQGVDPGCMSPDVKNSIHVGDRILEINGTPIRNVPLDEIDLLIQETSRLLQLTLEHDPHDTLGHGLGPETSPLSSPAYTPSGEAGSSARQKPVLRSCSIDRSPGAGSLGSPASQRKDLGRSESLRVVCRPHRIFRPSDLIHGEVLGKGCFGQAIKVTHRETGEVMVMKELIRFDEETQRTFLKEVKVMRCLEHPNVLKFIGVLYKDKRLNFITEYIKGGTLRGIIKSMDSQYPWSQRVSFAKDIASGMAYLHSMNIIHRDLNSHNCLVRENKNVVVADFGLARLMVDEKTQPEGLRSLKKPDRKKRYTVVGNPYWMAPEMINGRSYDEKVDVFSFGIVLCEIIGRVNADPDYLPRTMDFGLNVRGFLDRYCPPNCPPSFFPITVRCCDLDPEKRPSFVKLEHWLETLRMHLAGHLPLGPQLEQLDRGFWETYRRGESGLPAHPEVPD
Sequence of Obg-like ATPase 1 (Q9NTK5 whole entry, looked up): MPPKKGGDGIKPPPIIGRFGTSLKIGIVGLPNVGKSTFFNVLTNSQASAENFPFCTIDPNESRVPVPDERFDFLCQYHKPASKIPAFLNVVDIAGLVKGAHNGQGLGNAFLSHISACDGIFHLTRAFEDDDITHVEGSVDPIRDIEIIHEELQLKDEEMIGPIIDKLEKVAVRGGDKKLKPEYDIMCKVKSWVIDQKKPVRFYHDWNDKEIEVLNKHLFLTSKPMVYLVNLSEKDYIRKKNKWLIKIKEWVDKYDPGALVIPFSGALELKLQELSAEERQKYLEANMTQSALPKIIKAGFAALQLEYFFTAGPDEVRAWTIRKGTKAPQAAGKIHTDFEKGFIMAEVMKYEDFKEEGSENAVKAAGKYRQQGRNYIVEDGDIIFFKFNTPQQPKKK

Turning to `C=CC(=O)N1CCC[C@H](n2c(=O)n(-c3ccc(Oc4ccccc4)cc3)c3c(N)ncnc32)C1`, the Kd in assay [1], in assay [2], in assay [3], in assay [4], in assay [5] and in assay [6] was > 30 µM (inactive) throughout. The Kd in assay [7] is > 30 µM (inactive).

As for `COc1cc(Nc2ncc3c(n2)-c2ccc(Cl)cc2C(c2c(F)cccc2OC)=NC3)ccc1C(=O)O` [ALISERTIB], the Kd in assay [1], in assay [2], in assay [4], in assay [6], in assay [7] and in assay [8] was > 30 µM (inactive) in each case.

As for `O=C(Nc1c[nH]nc1-c1nc2cc(CN3CCOCC3)ccc2[nH]1)NC1CC1` [AT-9283], the Kd in assay [1], in assay [2], in assay [4], in assay [6], in assay [7] and in assay [8] was > 30 µM (inactive) throughout.

For `CNC(=O)c1ccccc1Sc1ccc2c(/C=C/c3ccccn3)n[nH]c2c1` [AXITINIB], the Kd in assay [1], in assay [2], in assay [4] and in assay [6] was > 30 µM (inactive) in each case.

With `NC(=O)Nc1cc(-c2cccc(F)c2)sc1C(=O)N[C@H]1CCCNC1` [AZD-7762], the Kd in assay [2], in assay [3], in assay [4], in assay [5], in assay [6] and in assay [7] was > 30 µM (inactive) each time.

With `CC(C)(C)c1nc(-c2cccc(NS(=O)(=O)c3c(F)cccc3F)c2F)c(-c2ccnc(N)n2)s1` [DABRAFENIB], the Kd in assay [1] is > 30 µM (inactive); in assay [2] it was > 30 µM (inactive); in assay [3], 0.066 µM (active); in assay [4], > 30 µM (inactive); in assay [5], 0.033 µM (active); in assay [6], 0.116 µM. Further, in assay [7], the Kd is > 30 µM (inactive).

`C[C@@H](Oc1cc(-n2cnc3ccc(CN4CCN(C)CC4)cc32)sc1C(N)=O)c1ccccc1C(F)(F)F` [GSK-461364]: the Kd in assay [1], in assay [2], in assay [4] and in assay [6] was > 30 µM (inactive) throughout.

Regarding `CC(=O)NCC(=O)N1[C@@H]2CC[C@H]1c1ccc(Nc3ncc(C(F)(F)F)c(NC4CCC4)n3)cc12` [PF-03814735], the Kd in assay [1] is > 30 µM (inactive); in assay [2] it was > 30 µM (inactive); in assay [3], 0.369 µM (active); in assay [4], > 30 µM (inactive); in assay [6] it was > 30 µM (inactive); in assay [7], > 30 µM (inactive).

Turning to `O=C(NOCCO)c1cc(CN2OCCCC2=O)c(F)c(F)c1Nc1ccc(I)cc1F` [RO-4987655], the Kd in assay [1], in assay [2], in assay [4] and in assay [6] was > 30 µM (inactive) in each case.

For the compound `CC(C)c1cc(CNc2nc(Nc3cc(C4CC4)[nH]n3)cc(N3CCN(C)CC3)n2)on1` [XL-228], the Kd was > 30 µM (inactive) in assay [1]; 0.003 µM (active) in assay [3]; > 30 µM (inactive) in assay [4]; 2.07 µM (active) in assay [5]; > 30 µM (inactive) in assay [6]; > 30 µM (inactive) in assay [7]. Also, the Kd in assay [8] was > 30 µM (inactive).

For the compound `CN1C/C=C/CCOc2cccc(c2)-c2ccnc(n2)Nc2cccc(c2)C1` [ZOTIRACICLIB], the Kd in assay [1], in assay [3], in assay [4], in assay [5], in assay [6] and in assay [7] was > 30 µM (inactive) in each case. In assay [8], the Kd was > 30 µM (inactive).
